Columns and labels:
[1] = test system: Patients suffering from diabetic neuropathic pain; test: Clinical study in human diabetic neuropathic pain patients (double-blind, placebo-controlled, 112 days); assay type: in vivo; conditions: 1800 mg/day total dosage
Procedure: FIG. 1 depicts the average VAS score (y-axis) during the last week of treatment of the clinical study described in Example 1. The darker area represents the scores obtained in the group of patients obtaining oxcarbazepine at a daily dosage of 1800 mg (N=68). The brighter area represents the score for the placebo group (N=76). FIG. 2 illustrates the average VAS score (y-axis) by week (x-axis) of the clinical study described in Example 1. The upper lines represents the score for the placebo group (N=76). The lower line represents the scores obtained in the group of patients obtaining oxcarbazepine at a daily dosage of 1800 mg (N=68). In a clinical study in a Caucasian patient population, a full double-blind treatment was conducted for a period of 112 days. Patients suffering from diabetic neuropathic pain obtained placebo or oxcarbazepine.

[2] = test system: patients with neuropathic pain of diabetic origin; test: Impact of oxcarbazepine on sleep in human diabetic neuropathic pain patients (daily sleep questionnaire); assay type: in vivo; conditions: up to 1800 mg/day; for Awaken from sleep, % days during double-blind phase, mean (SD): P 0.02 vs placebo
Procedure: In a multicenter, placebo-controlled, double-blind, parallel-group study the efficacy of oxcarbazepine up to 1800 mg/day in patients with neuropathic pain of diabetic origin was evaluated. The study consisted of three phases: a pre-randomization screening phase (2 weeks); a double-blind treatment phase (18 weeks); and an open-label extension phase (52 weeks). The double-blind treatment phase was further divided into a titration period of 4 weeks, a maintenance period of 12 weeks, and a follow-up period of 2 weeks. Patients who met all inclusion criteria were randomized in a 1:1 ratio to receive either study medication or placebo during double-blind treatment (16 weeks). After randomization into the double-blind treatment phase, oxcarbazepine or placebo was initiated at 300 mg/day, and increased 3 days later to 300 mg twice a day (600 mg/day). After this, oxcarbazepine was titrated as tolerated up to a maximum target dose of 900 mg twice a day (1800 mg/day) in increments of 300 mg every 5 days over the 4-week titration period. During the remaining 12 weeks of the study (maintenance period), oxcarbazepine treatment remained at the dose reached by day 28. Patient response to the following three questions from the daily sleep questionnaire were used to assess disturbances of sleep over double-blind treatment: 1) Did your pain delay you in getting to sleep last night? 2) Did your pain awaken you from sleep more than one time last night? 3) Did you feel rested after sleep this morning?

[3] = difference did not achieve statistical significance

Q: How did the “average Visual Analog Scale (VAS) for pain severity score during the last week of double-blind treatment, versus placebo” value ([1]; Caucasian patient population, 112 days double-blind, p=0.0108) turn out when `NC(=O)N1c2ccccc2CC(=O)c2ccccc21` [Oxcarbazepine, 10-oxo-10, 11-dihydro-5H-dibenz[b,f]azepine-5-carboxamide] was run?
A: Its value is “statistically significantly superior to placebo”.

Q: What about the “percentage of responders (those felt slightly, much, or very much improved)” value ([1]; placebo group 39.7%, p=0.0003) of the same molecule?
A: The value was 73.2%.

Q: And the “Awaken from sleep, % days during double-blind phase, mean (SD)” value ([2]; ITT population, n = 68)?
A: The value was 31 (29) % days.

Q: What about the “Awaken from sleep, % days during double-blind phase, mean (SD)” value ([2]; ITT population, n = 68, listed as oxcarbazepine) of the same molecule?
A: The value was 31 % days.

Q: And the “Delayed getting to sleep, % days during double-blind phase, mean (SD)” value ([2]; ITT population, n = 68, P 0.09 vs placebo)?
A: Its value is 28 (31) % days.

Q: What about the “Felt rested after sleep, % days during double-blind phase, mean (SD)” value ([2]; ITT population, n = 68, P 0.17 vs placebo) of the same molecule?
A: The value was 55 (34) % days.

Q: And the “proportion of patients experiencing delays in getting to sleep, in comparison with placebo” value [2, 3]?
A: Its value is “lower proportion”.

Q: And the “proportion of patients who felt rested after sleep, in comparison with placebo” value [2, 3]?
A: The value was “greater proportion”.
